The text below walks through data of patent publication US11458132B2, “Quinolin-2(1H)-one inhibitors of Late SV40 Factor” (TRUSTEES OF BOSTON UNIVERSITY, priority 2020, dated 2022).

For series [1], the system named is RPE cells. The experiment in a line: Cell motility tracking. As to conditions: thymidine block, 4 μM FQI1; not statistically significant. The format is cell-based. The method, then: Cell motility tracking: After overnight seeding in high μ-dishes, cells were synchronized by incubating in 2 mM thymidine for 18-20 hours. Thereafter, cells were treated with 4 μM FQI1 or vehicle (0.01% DMSO) for 1 hour, followed by a 10-min incubation in NucSpot® Live 650 dye (Biotium, 40082) following the manufacturer's instructions. Subsequently, cells were imaged every 2 minutes for 2 hours in an environmental chamber of a Nikon C2 Si microscope at 37° C. and 5% CO2 at 20× magnification. Cells that underwent mitosis during the 2-hour period were excluded from the analysis. Using ImageJ, individual nuclei were monitored using the Manual Tracking tool and the distances between starting and end points were integrated into swarmplots using Python's seaborn library.

Series [2] in a line: Plasma protein binding (PPB), mouse. The format is in vitro ADME.

As to `CCOc1ccccc1C1CC(=O)Nc2cc3c(cc21)OCO3` (centres unmarked) [FQI1, 8-(2-ethoxyphenyl)-7,8-dihydro-[1,3]dioxolo[4,5-g]quinolin-6(5H)-one], in series [1], the “cell displacement over a 2-hour period” value is on record as “clear trend towards motility being reduced”.
For the compound `CCOc1cc(N(C)C)ccc1-c1cc(=O)[nH]c2cc3c(cc12)OCO3` [FQI2-34, 8-(4-(dimethylamino)-2-ethoxyphenyl)-[1,3]dioxolo[4,5-g]quinolin-6(5H)-one], in series [2], the unbound share (fraction unbound) (commonly free concentration divided by total concentration) is 0.07.
